These results are taken from PubChem BioAssay (NCI).

Several values for one entry are separate records, joined by “and”; a condition that tells them apart may be missing. Identical values can stand only once.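 These data come from cells grown in 96-well plates and exposed to compound for 48 hours at five concentrations. GI50: concentration for 50% inhibition of growth. TGI: total growth inhibition.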 Some results are limits rather than exact numbers.

Some test systems named below: SN12C renal; SK-MEL-28 melanoma; BT-549 breast; SW-620 colon; TK-10 renal; HOP-92 NSCLC; NCI-H460 lung; MDA-MB-435; SF-268 CNS; 786-0 renal.
Experiment in all cases: inhibition of tumour cell growth, NCI panel, 48 h

On to `CCCN(CCC)c1ccc(C=O)cc1`, for which the GI50 in the experiment on SN12C renal is over 96200 nM; with SK-MEL-28 melanoma, over 100000 nM; in the experiment on BT-549 breast it was 35400 nM; in the experiment on SW-620 colon, 54700 nM; with TK-10 renal it was 37500 nM; with HOP-92 NSCLC, 13000 nM. Also, the GI50 is over 100000 nM in the experiment with NCI-H460 lung, 39700 nM with MDA-MB-435, 53200 nM in the experiment on SF-268 CNS and 81000 nM in the experiment on 786-0 renal. Further, the TGI in the experiment with SN12C renal is over 100000 nM; in the experiment with SK-MEL-28 melanoma, over 100000 nM; in the experiment on BT-549 breast it was over 100000 nM; in the experiment on SW-620 colon, over 100000 nM; with TK-10 renal, over 100000 nM; with HOP-92 NSCLC, 66200 nM. The TGI in the experiment on NCI-H460 lung, in the experiment on MDA-MB-435, in the experiment on SF-268 CNS and in the experiment with 786-0 renal was over 100000 nM throughout.
Regarding `C=C1C(=O)O[C@H]2[C@H]1CC/C(COC(=O)/C=C\C(=O)NCc1ccc(Cn3c(=O)sn(-c4ccc(OC)cc4)c3=O)cc1)=C\CC[C@@]1(C)O[C@@H]21`, the GI50 is 636 nM in the experiment with SN12C renal; 825 nM in the experiment on SK-MEL-28 melanoma; 562 nM with BT-549 breast; 272 nM in the experiment with SW-620 colon; 917 nM in the experiment on TK-10 renal; 587 nM in the experiment on HOP-92 NSCLC. Moreover, the GI50 in the experiment on NCI-H460 lung was 804 nM; with MDA-MB-435, 642 nM; in the experiment with SF-268 CNS, 693 nM; in the experiment with 786-0 renal, 665 nM. Also, the TGI in the experiment on SN12C renal came out at 1460 nM; in the experiment with SK-MEL-28 melanoma it was 1550 nM; with BT-549 breast, 1290 nM; in the experiment with SW-620 colon, 1000 nM; in the experiment with TK-10 renal, 1670 nM; in the experiment with HOP-92 NSCLC, 1360 nM. The TGI in the experiment with NCI-H460 lung was found to be 1810 nM; in the experiment with MDA-MB-435, 1320 nM; in the experiment on SF-268 CNS, 1370 nM; in the experiment on 786-0 renal, 1370 nM.
Regarding `COc1ccc2nc3cccc([N+](=O)[O-])c3c(NCCN(CCO)CCO)c2c1`, the GI50 in the experiment on SN12C renal is 48.6 nM; with SK-MEL-28 melanoma it was 44.4 nM; in the experiment with BT-549 breast, 41.5 nM; in the experiment on SW-620 colon it was 13.9 nM; in the experiment on TK-10 renal it was 30.7 nM; in the experiment on HOP-92 NSCLC, 27.8 nM. Moreover, the GI50 in the experiment on NCI-H460 lung was 10.4 nM; in the experiment with MDA-MB-435 it was 17.5 nM; in the experiment with SF-268 CNS it was 33.2 nM; in the experiment with 786-0 renal, 26.8 nM. For the same molecule, the TGI was determined as 443 nM in the experiment with SN12C renal; 414 nM with SK-MEL-28 melanoma; 140 nM with BT-549 breast; 619 nM in the experiment with SW-620 colon; 229 nM in the experiment with TK-10 renal; 82.9 nM in the experiment on HOP-92 NSCLC. Moreover, the TGI in the experiment on NCI-H460 lung was determined as 98.5 nM; in the experiment with MDA-MB-435, 40.6 nM; in the experiment with SF-268 CNS, 234 nM; in the experiment with 786-0 renal it was 156 nM.
As to `CS(=O)(=O)N1CCN(Cc2cc3nc(-c4cccc5[nH]ncc45)nc(N4CCOCC4)c3s2)CC1`, the GI50 is 493 nM and 224 nM in the experiment on SN12C renal; 345 nM and 133 nM in the experiment on SK-MEL-28 melanoma; 271 nM and 231 nM in the experiment with BT-549 breast; 1290 nM and 484 nM in the experiment with SW-620 colon; 110 nM and 94.9 nM with TK-10 renal; 23.2 nM and 54.7 nM in the experiment with HOP-92 NSCLC. The GI50 is 357 nM and 311 nM in the experiment on NCI-H460 lung; 728 nM and 276 nM with MDA-MB-435; 1590 nM and 625 nM with SF-268 CNS; 281 nM in the experiment on 786-0 renal. The TGI is over 100000 nM in the experiment with SN12C renal; over 100000 nM in the experiment with BT-549 breast; over 100000 nM in the experiment on SW-620 colon; 789 nM and 740 nM with TK-10 renal; 197 nM and 508 nM in the experiment with HOP-92 NSCLC; over 100000 nM in the experiment on NCI-H460 lung. Besides, the TGI with MDA-MB-435 was over 100000 nM; in the experiment with SF-268 CNS, over 100000 nM; in the experiment with 786-0 renal it was 2460 nM.
Take `O=C(c1ccccn1)c1nnn2ccccc12`: the TGI in the experiment with SN12C renal, in the experiment on SK-MEL-28 melanoma, in the experiment with BT-549 breast, in the experiment on SW-620 colon, in the experiment on TK-10 renal and with HOP-92 NSCLC was over 100000 nM throughout. For the same molecule, the TGI with NCI-H460 lung, with MDA-MB-435, in the experiment with SF-268 CNS and in the experiment on 786-0 renal was over 100000 nM in each case.
`CCOC(=O)c1c[nH]c2c(OCc3ccccc3)c3ccccc3c(O)c2c1=O`: the GI50 is 22200 nM in the experiment with SN12C renal; 25800 nM in the experiment with SK-MEL-28 melanoma; 12700 nM in the experiment with BT-549 breast; 7950 nM with SW-620 colon; 16000 nM in the experiment with TK-10 renal; 27000 nM with HOP-92 NSCLC. The GI50 in the experiment on NCI-H460 lung is 4290 nM; in the experiment with MDA-MB-435, 6440 nM; in the experiment on SF-268 CNS it was 12900 nM; in the experiment on 786-0 renal, 18600 nM. Further, the TGI with SN12C renal is over 100000 nM; with SK-MEL-28 melanoma, over 100000 nM; in the experiment with BT-549 breast, 37800 nM; in the experiment on SW-620 colon, over 100000 nM; with TK-10 renal, 45500 nM; with HOP-92 NSCLC, 93500 nM. Besides, the TGI in the experiment with NCI-H460 lung was over 47500 nM; in the experiment with MDA-MB-435 it was 15600 nM; in the experiment with SF-268 CNS, 50700 nM; in the experiment with 786-0 renal, 57400 nM.
For `C=CCCC(O)c1ccc(C(O)CCCCCCCCCCCC)o1` (centres undefined), the GI50 in the experiment with SN12C renal is 18300 nM; in the experiment on SK-MEL-28 melanoma it was 27100 nM; with BT-549 breast it was 19900 nM; in the experiment on SW-620 colon, 17900 nM; with TK-10 renal, 16400 nM; with HOP-92 NSCLC, 25500 nM. Moreover, the GI50 in the experiment on NCI-H460 lung was over 100000 nM; with MDA-MB-435, 17800 nM; in the experiment with SF-268 CNS it was over 100000 nM; in the experiment with 786-0 renal, 17600 nM. Also, the TGI in the experiment on SN12C renal came out at 34200 nM; with SK-MEL-28 melanoma, 65500 nM; in the experiment with BT-549 breast, 42200 nM; in the experiment on SW-620 colon, 37900 nM; in the experiment on TK-10 renal it was 30200 nM; in the experiment with HOP-92 NSCLC, 51200 nM. In addition, the TGI in the experiment with NCI-H460 lung was over 100000 nM; with MDA-MB-435, 34700 nM; in the experiment with SF-268 CNS, over 100000 nM; in the experiment on 786-0 renal it was 31500 nM.
Regarding `O=C1CSC(=S)N1c1ccc(F)cc1F`, the TGI with SN12C renal, in the experiment on SK-MEL-28 melanoma, in the experiment with BT-549 breast, in the experiment on SW-620 colon, with TK-10 renal and with HOP-92 NSCLC was over 100000 nM each time. For the same molecule, the TGI in the experiment with NCI-H460 lung, in the experiment with MDA-MB-435, with SF-268 CNS and with 786-0 renal was over 100000 nM in each case.
